Where two headings read alike, the source gives them in different places.
Key:
[1] = tested on: p21; test: Western blot of liver tissue, p21; type: in vivo, Rattus norvegicus; conditions: Western blot normalized to β-actin, oral, 21 days
Protocol: (§1) Adult male rats (n = 7 × 9 = 63), weighing 150–200 g, were randomized and divided into seven groups. Group I served as the control. Group II received the vehicle control (0.1 ml/100 g ethanol). Group III was treated with bromadiolone (B) at ½ LD₅₀ (0.8 mg/kg)[28]. Group IV received bromadiolone (0.8 mg/kg) + ciprofloxacin (Anti.20 mg/kg)[29]. Group V received bromadiolone (0.8 mg/kg) + ciprofloxacin (20 mg/kg) + vitamin D (Vit. D 35 mg/kg)[30]. Group VI received bromadiolone (0.8 mg/kg) + ciprofloxacin (20 mg/kg) + vitamin D (35 mg/kg) + cinnamon (Cin. 2 g/kg)[31]. Group VII received bromadiolone (0.8 mg/kg) + ciprofloxacin (20 mg/kg) + vitamin D (35 mg/kg) + aspirin (A. 150 mg/kg)[32]. All doses were administered orally to wild rats over 21 days. The chemical we used for the euthanizing process: rats were narcotized by Ketamine + xylazine injection (IP) and then sacrificed by slaughtering.
(§2) For the immunodetection and quantification of proteins such as p21 and cleaved caspase-3, markers of apoptotic cell death under various treatments, liver tissue was homogenized using RIPA lysis buffer. The samples were chopped and briefly sonicated on ice, and protein concentration was measured. Proteins (20 µg) were separated using SDS-PAGE and transferred to a nitrocellulose membrane. […] The optical densities of the bands were quantified and normalized to β-actin (1:5000) using ImageJ software.

[2] = tested on: p53; test: Immunohistochemical detection of p53 in liver sections; type: in vivo, Rattus norvegicus; conditions: liver immunohistochemistry; oral, 21 days
Protocol: as §1
Using xylene, paraffin-embedded tissues were deparaffinized and then rehydrated through a graded series of ethanol solutions. Antigen retrieval was performed by boiling the slides in 1 mM EDTA. The sections were then incubated in 3% H2O2 for ten minutes, washed with wash buffer (1X PBS) for five minutes, and blocked for one hour at room temperature. A 1:1000 dilution of the p53 primary antibody was then applied. […]

[3] = tested on: liver of male wild rats; test: Hepatic lipid peroxidation (LPO) and reduced glutathione (GSH); type: in vivo, Rattus norvegicus; conditions: oral, 21 days
Protocol: as §1
(§3) Determination of ionized calcium, RBC count, Hb, and prothrombin time (PT) was conducted at a private biochemical laboratory in Assiut, Egypt, using a Genuri KT-6400 automatic hematology analyzer (China). ALT and AST activities in blood plasma were measured using specific kits (Boehringer Mannheim, Mannheim, Germany) according to the manufacturer’s instructions. […]. The concentration of reduced glutathione (GSH) was estimated based on[37] and measured using spectrophotometry.

[4] = tested on: male wild rats; test: Serum measurements (AST, ALT, Ca2+, RBCs, Hgb, PT); type: in vivo, Rattus norvegicus; conditions: oral, 21 days
Protocol: as §1, §3

[5] = tested on: male wild rats of Rattus norvegicus; type: in vivo; conditions: oral, 8 treated, one week
[6] = tested on: cleaved caspase-3; test: Western blot of liver tissue, cleaved caspase-3; type: in vivo, Rattus norvegicus; conditions: Western blot normalized to β-actin, oral, 21 days
Protocol: as §1, §2

[7] = tested on: liver of male wild rats; test: Semi-quantitative scoring of histopathological lesions in the liver (H&E); type: in vivo, Rattus norvegicus; set-up: key to Fatty deposition / Hemorrhage / Thickening of blood vessels / Loss of liver architecture: (-) Absent lesion; (+) Slight (< 25%); (++) Moderate (from 25–50%); (+++) Severe (> 50%); conditions: liver H&E lesion score; oral, 21 days
Protocol: as §1
. Hematoxylin, eosin stains was applied to 5 μm-thick paraffin Sect[38]. Four categories were established based on the histological evaluation of nine liver tissue lesions: (−) no lesion, (+) mild (less than 25%), (++) moderate (between 25% and 50%), and (+++) severe (more than 50%)[39]. We examined about 5 photos for each rat in each groups; 5 × 63 = 315 photos for assessments. Examination and photography were conducted using a digital camera (ToupTek ToupView, copyright 2019, version x86, compatible with Windows XP/Vista/7/8/10, China) and a light microscope (Olympus CX31, Japan).

[8] = tested on: male wild rats of Rattus norvegicus; type: in vivo; conditions: oral

O=c1oc2ccccc2c(O)c1C(CC(O)c1ccc(-c2ccc(Br)cc2)cc1)c1ccccc1 (stereo not shown) [Bromadiolone]
increase in p21 level compared to the control [1]: 96.65% | increase in p53 levels compared to the control [2]: 60.74% | p53 immunoreactivity in liver sections [2]: moderate brown immunoreactivity | LPO, Mean ± SE ([3]; control 1.458 ± 0.1402): 1.660 ± 0.1817 nmol/ mg protein | GSH, Mean ± SE ([3]; control 10.42 ± 0.4500): 6.953 ± 0.1538 ng/mg protein | Ca2+ serum, Mean ± SE ([4]; control 4.640 ± 0.2943): 13.15 ± 0.9675 mg/dL | RBCs serum, Mean ± SE ([4]; control 11.08 ± 0.1956): 8.240 ± 0.5015 M/µl | Hgb serum, Mean ± SE ([4]; control 11.92 ± 0.3813): 11.4 ± 0.2358 g/dL | PT (prothrombin time) serum, Mean ± SE ([4]; control 21.25 ± 2.212): 37.43 ± 1.329 s | AST serum, Mean ± SE ([4]; control 92.37 ± 5.279): 130.8 ± 8.149 U/L | ALT serum, Mean ± SE ([4]; control 184.8 ± 4.632): 225.5 ± 1.679 U/L | Dead ([5]; dose 0.3 mg/kg b.w.): 1 | Dead ([5]; dose 0.6 mg/kg b.w.): 2 | Dead ([5]; dose 2.2 mg/kg b.w.): 5 | increase in cleaved caspase-3 level compared to the control [6]: 75.92% | Cellular infiltration [7]: ++ ((++) Moderate (from 25–50%)) | Congested blood vessels [7]: ++ ((++) Moderate (from 25–50%)) | Dilated blood sinusoids [7]: + ((+) Slight (< 25%)) | Fatty deposition [7]: - | Features of necrosis: Karyolysis [7]: + ((+) Slight (< 25%)) | Features of necrosis: Karyorrhexis [7]: + ((+) Slight (< 25%)) | Features of necrosis: Pyknosis [7]: ++ ((++) Moderate (from 25–50%)) | Hemorrhage [7]: - | Loss of liver architecture [7]: - | Necrotic areas [7]: + ((+) Slight (< 25%)) | Thickening of blood vessels [7]: - | Vacuolated cytoplasm [7]: ++ ((++) Moderate (from 25–50%)) | Observed response % ([8]; time 5 days): 50% | Observed response % ([8]; time 6 days): 62.5% | Linear probit ([8]; time 6 days, probit fit): 5.4393 | Linear response % ([8]; time 6 days, probit fit): 66.9788%

Source: article PMC12689647, “Evaluation of bromadiolone combined with ciprofloxacin, vitamin D, aspirin, and cinnamon as an apoptosis-mediated rodenticide strategy” (Scientific Reports, 2025)
